Values of other authors as cited in US7632828B2, “Gram-positive carbapenem antibacterials and processes for their preparation” (FOB Synthesis, Inc., priority 2004, dated 2009).
Values belong to the compound of their own block, whether it stands above or below them.

Tests used:
[1] = test subjects
[2] = target: T1, mammalian β-lactamase renal dehydropeptidase-I (DHP-I) (Homo sapiens, UniProt P16444)
T1 sequence (P16444 17-385): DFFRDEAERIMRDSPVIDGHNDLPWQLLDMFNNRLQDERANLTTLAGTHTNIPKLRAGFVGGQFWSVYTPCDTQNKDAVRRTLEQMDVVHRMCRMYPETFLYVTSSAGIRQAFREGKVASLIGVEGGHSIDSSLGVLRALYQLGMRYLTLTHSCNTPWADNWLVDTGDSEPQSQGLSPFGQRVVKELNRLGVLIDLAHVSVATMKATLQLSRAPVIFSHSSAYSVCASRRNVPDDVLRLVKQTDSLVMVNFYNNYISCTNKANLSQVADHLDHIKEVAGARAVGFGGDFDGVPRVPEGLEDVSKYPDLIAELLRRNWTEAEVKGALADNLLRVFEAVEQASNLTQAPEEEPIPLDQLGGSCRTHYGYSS

[3] = due to its lactam nucleus and amino acid configuration
kidney dehydropeptidase = target: T2, kidney dehydropeptidase (Homo sapiens, UniProt P16444)
T2 sequence (P16444 17-385): T1 sequence (P16444 17-385)

urinary tract recovery [1]: poor urinary tract recovery | stability to renal dehydropeptidase-I (DHP-I) [2]: instability
Compound: C[C@@H](O)[C@H]1C(=O)N2C(C(=O)O)=C(SCCN=CN)C[C@H]12 [imipenem, N-formimidoyl thienamycin]

chemical stability [3]: chemically unstable
Compound: C[C@@H](O)[C@H]1C(=O)N2C(C(=O)O)=C(SCCN)C[C@H]12 [thienamycin]
activity against Pseudomonas spp. (Pseudomonas spp.): active against Pseudomonas spp.

Compound: Biapenem
stability against hydrolysis by kidney dehydropeptidase (kidney dehydropeptidase): stability against hydrolysis by kidney dehydropeptidase | potency across bacterial spectrum (wide bacterial spectrum): exhibits potency across a wide bacterial spectrum

Compound: meropenem
activity against Gram-negative bacteria (Gram-negative bacteria): active against a large number of Gram-negative bacteria
